Entries after “also recorded” stand apart in the source; their conditions may differ.
What was measured:
[1] = target: PAD2 (Homo sapiens, UniProt Q9Y2J8); assay: Inactivation kinetics; assay type: biochemical
[2] = tested on: U2OS cells; assay: Cell viability, colorimetric XTT assay; assay type: cell-based, human
[3] = tested on: mouse neutrophils; assay: NET formation, PMA-stimulated neutrophils, DNA/neutrophil elastase overlap assay; assay type: cell-based; conditions: Cl-amidine as reference
[4] = Murine hepatic microsome stability assay; assay type: in vitro ADME, mouse

Chain of PAD2 (Q9Y2J8 whole entry): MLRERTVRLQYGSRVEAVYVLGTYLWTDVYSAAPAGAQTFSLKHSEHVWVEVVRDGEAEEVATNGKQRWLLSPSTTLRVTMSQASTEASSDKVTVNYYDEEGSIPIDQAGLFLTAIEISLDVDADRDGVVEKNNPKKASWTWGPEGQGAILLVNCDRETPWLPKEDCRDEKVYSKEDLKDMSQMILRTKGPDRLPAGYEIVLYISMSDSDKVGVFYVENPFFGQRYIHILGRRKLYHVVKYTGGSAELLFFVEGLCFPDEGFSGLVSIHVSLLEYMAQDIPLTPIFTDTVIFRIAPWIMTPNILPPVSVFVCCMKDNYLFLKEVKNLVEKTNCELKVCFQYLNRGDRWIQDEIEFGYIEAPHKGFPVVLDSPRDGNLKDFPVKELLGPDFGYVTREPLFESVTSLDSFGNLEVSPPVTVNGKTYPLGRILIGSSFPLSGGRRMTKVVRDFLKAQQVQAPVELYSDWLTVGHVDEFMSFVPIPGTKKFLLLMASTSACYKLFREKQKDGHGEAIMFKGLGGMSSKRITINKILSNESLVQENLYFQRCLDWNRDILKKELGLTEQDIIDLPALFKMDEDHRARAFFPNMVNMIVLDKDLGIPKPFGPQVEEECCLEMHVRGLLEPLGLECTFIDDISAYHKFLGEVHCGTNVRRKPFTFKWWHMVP

| Compound | kinact/KI [1] [M⁻¹ s⁻¹] | EC50 improvement over parent compound Cl-amidine [2] [fold] | inhibition of NET formation [3] | further results |
| --- | --- | --- | --- | --- |
| CC(C)(C)n1nnc([C@H](CCCNC(=N)CCl)NC(=O)c2ccccc2)n1 [Compound 6, tetrazole tert-butyl Cl-amidine] | 125 |  |  |  |
| CC(C)(C)n1nnc([C@H](CCCNC(=N)CF)NC(=O)c2ccc(-c3ccccc3)cc2)n1 [Compound 14, biphenyl tetrazole tert-butyl-F-amidine] |  | 3.5 |  |  |
| CC(C)(C)n1nnc([C@H](CCCNC(=N)CCl)NC(=O)c2ccc(-c3ccccc3)cc2)n1 [Compound 13, biphenyl tetrazole tert-butyl Cl-amidine] |  | 16 | significantly more potent than Cl-amidine; also recorded: significantly reduces NET formation compared to Cl-amidine | effect on cell growth / cell viability ([2]; 20 μM, 72 h, XTT): completely abolished cell growth; also recorded: completely abolishes the growth |
| CC(C)(C)n1nnc([C@H](CCCNC(=N)CCl)NC(=O)c2ccccc2C(=O)O)n1 [Compound 21, o-carboxyl tetrazole tert-butyl Cl-amidine] |  |  | inhibits NET formation only at very high concentrations; also recorded: inhibits NET formation at higher doses | stability / half-life in mouse hepatic microsomes [4]: half-life mimics those obtained for the fluoro analogs |
| CC(C)(C)n1nnc([C@H](CCCNC(=N)CF)NC(=O)c2ccccc2)n1 [Compound 7, tetrazole tert-butyl-F-amidine] | 108 |  |  |  |
| N=C(CF)NCCC[C@H](NC(=O)c1ccccc1)C(N)=O [F-amidine, reference compound] | 6.33 |  |  |  |

Source: PMC4610306 (Journal of Medicinal Chemistry, 2015)
